Common to all, as to assay: NCI tumour cell line growth inhibition, 48 h
Assay [1] relates to DLD-1 colon.
Assay [2] relates to HOP-18 NSCLC.
Assay [3] relates to LXFL 529 NSCLC.
Assay [4] has as its system M19-MEL melanoma.
The subject of assay [5] is XF 498 CNS.
The test system of assay [6] is MDA-N.
Assay [7] has as its system P388 leukemia.
Assay [8] concerns P388/ADR leukemia.
For assay [9], the system named is SN12K1 renal.
Assay [10] concerns RXF-631 renal.

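1) Cells in 96-well plates. 2) Compound, 48 h, 5 concentrations. 3) Linear interpolation between surrounding doses. 4) Unreached endpoint = highest concentration. Here, GI50 denotes the concentration required for 50% inhibition of growth. At the TGI there is no net growth.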

As to `CCCCC1(C(NC(=O)c2ccccc2Cl)c2ccncc2)C(=O)N(c2ccccc2)N(c2ccccc2)C1=O` (stereo not drawn), the TGI in [1], in assay [2], in assay [3], in assay [4] and in assay [5] was above 100 µM each time.
`O=NNc1ccc(S(=O)(=O)c2ccc3ccccc3c2)cn1` returned a TGI in assay [6] above 100 µM.
On to `COc1cc2c3cc1Oc1c(OC)c(OC)cc4c1C(Cc1ccc(O)c(c1)Oc1ccc(cc1)CC3N(C)CC2)N(C)CC4` (stereo not drawn), for which the TGI in assay [6] amounted to 60 µM.
Compound `Clc1ccc(CN2CCCN(Cc3ccc(Cl)cc3)C2c2cc3ccccc3c3ccccc23)cc1` registered a TGI in assay [6] above 100 µM.
As to `NC1=NCN(C2OC(CO)C(O)C2O)C(=O)N1` (stereo not drawn), the TGI is 1560 µM in assay [1]; 1060 µM in assay [2]; 1760 µM in assay [4]; 381 µM in [6]; 229 µM in [7]; 196 µM in assay [8]. In addition, the TGI was 619 µM in assay [9] and 197 µM in [5].
`O=C1CCC(=O)N1Sc1ccccc1`: the TGI in assay [1], in [4] and in [10] was above 100 µM each time.
With `Cc1ccc2ccc(-c3ccccc3)c3c2c1C(=O)c1ccccc1C3=O`, the TGI in assay [1] was above 100 µM; in [2], above 100 µM; in assay [3] it was above 100 µM; in assay [4] it was above 100 µM; in assay [5], 99.1 µM.
On to `OCC(O)C(O)C(O)c1nn(-c2ccc(F)cc2)c2nc3cc(Cl)c(Cl)cc3nc12` (stereo not drawn), for which the TGI in assay [1] was above 100 µM; in assay [2] it was 52.7 µM; in assay [3] it was above 100 µM; in [4], 57.8 µM; in assay [5] it was 24.6 µM.
For `COc1ccc(Br)c(C(=O)N2CCc3ccccc32)c1N`, the TGI in [1], in assay [2], in assay [3], in [4] and in assay [5] was above 100 µM throughout.
Turning to `CNC(=O)OCc1nc(SC)n(C)c1COC(=O)NC`, the TGI in [1] was found to be 494 µM; in [2], 491 µM; in assay [4] it was 369 µM; in assay [6], 310 µM; in assay [7], 331 µM; in [8], 611 µM. The TGI in [9] is 250 µM; in assay [5], 446 µM.
Turning to `COc1ccccc1C(=O)N(Cc1ccccc1)c1ccc(Cl)c(C(=O)OC(C)C)c1`, the TGI in assay [1] was above 100 µM; in assay [2], 56.3 µM; in assay [3], above 100 µM; in assay [4], above 100 µM; in assay [6] it was above 100 µM; in [10] it was above 100 µM. Besides, the TGI in [5] is 43.4 µM.
For the compound `Cc1ccc(OC(=O)N2C/C(=C\c3ccccc3)C(=O)/C(=C/c3ccccc3)C2)cc1`, the TGI in assay [1] is 28.1 µM; in [2] it was above 91.2 µM; in assay [3], 30.6 µM; in assay [4], 18.9 µM; in assay [6], 15.3 µM; in assay [10], above 100 µM. The compound also came in with a TGI in assay [5] of 49.1 µM.
On to `CCCCCC[C@H]1C(=O)O[C@H](C)[C@H](NC(=O)c2cccc(NC=O)c2OC)C(=O)O[C@@H](C)[C@@H]1OC(=O)CCC` (tested in a mixture with another compound), for which, in assay [6], the GI50 is 11.1 µM and the TGI is 45.2 µM.
In the case of `O=c1oc2c3ccc4ccccc4c3n(CCN3CCCCC3)c2c2ccccc12`, the TGI was above 100 µM in assay [1]; above 100 µM in assay [2]; above 100 µM in assay [3]; above 100 µM in assay [4]; above 100 µM in assay [10]; 42.9 µM in assay [5].
Take `OCCN(CO)CO`: the TGI in [6] is above 100 µM.
The compound `CC1OC(OC2C(O)C(O)C(O)C(O)C2O)C(N)CC1N=C(N)C(=O)O` (stereo not drawn) yielded a TGI in assay [6] above 100 µM.
`COc1cccc(/C=N\NC(=O)C(C)SC(C)C(=O)N/N=C/c2cccc(OC)c2)c1` (stereo not drawn): the TGI in [1], in assay [3], in assay [4] and in [5] was above 100 µM throughout.
On to `Cc1ccc(S(=O)C(C)C(Cl)c2ccccc2)cc1` (stereo not drawn), for which the TGI in assay [1], in assay [2], in assay [3] and in assay [4] was above 100 µM each time.
In assay [6], `COc1cc(N(C)C)c(OC)cc1C=C1C=CC=C1` displayed a TGI above 100 µM.
Compound `O=C(O)c1ccccc1NCn1c(=S)sc2ccccc21` returned a TGI in assay [6] above 100 µM.
For `O=c1[nH]cnc2n[nH]nc12`, the TGI in assay [2] is above 100 µM; in [3], above 100 µM; in [4], above 79.9 µM; in [5], 83.5 µM.
Turning to `C1=CC2CCC1CN2CCC1CNc2ccccc21` (stereo not drawn), the TGI in assay [1], in [2], in assay [3], in [4] and in assay [5] was above 100 µM each time.
Regarding `O=C(/C=C/c1ccccc1O)c1ccccc1Cl`, the TGI in assay [1], in assay [2], in assay [3], in [4], in assay [10] and in [5] was above 100 µM each time.
In assay [6], `Cn1c(=O)c2c(nc(N/N=C/c3ccccc3C(=O)O)n2C)n(C)c1=O` displayed a TGI above 100 µM.
`CC1(C)OC(=O)C(=C2CCC(C(=O)Nc3cccc(C(F)(F)F)c3)N2)C(=O)O1` (stereo not drawn): the TGI in [1] is above 100 µM; in assay [2] it was above 100 µM; in [3] it was above 100 µM; in [4], above 100 µM; in [5] it was 89.8 µM.
As to `Cc1cc(C)nc(NS(=O)(=O)c2ccc(Nc3c4ccccc4nc4c(C(=O)NCCN(C)C)cccc34)cc2)n1`, the TGI in [1] worked out at 21.7 µM; in assay [3], 20 µM; in assay [4] it was 14.9 µM; in assay [10], 18 µM; in assay [5], 26.8 µM.
On to `Cc1cc(Cl)ccc1NC(=O)C1C(=O)N(c2ccc(Cl)cc2C)C(=O)/C1=N\NC(N)=S` (stereo not drawn), for which the TGI in assay [1] was above 100 µM; in [2], 60.8 µM; in assay [3], 98.5 µM; in [4] it was above 100 µM; in [10] it was above 100 µM.
Regarding `COc1cc(OC)c2c(=O)c3cccc([N+](=O)[O-])c3n(C)c2c1`, the TGI in assay [3], in [10] and in assay [5] was above 100 µM throughout.
As to `NCCCN=c1ccc2c3c1c(O)c1c(O)ccc(=O)c1c3[nH]n2CCNCCO`, the TGI in assay [1] is 159 µM; in [2], 17.8 µM; in assay [4] it was above 250 µM; in assay [6], 8.37 µM; in assay [7], 6.13 µM; in [8], 100 µM. Moreover, the TGI was 16.3 µM in [9] and 6.05 µM in assay [5].
As for `N#CCc1cccc(CC#N)c1Br`, the TGI in assay [1], in [3] and in assay [5] was above 100 µM each time.
With `O=C(O)CSc1n[nH]c(-c2ccco2)n1`, the TGI in assay [1], in assay [3], in assay [4], in [10] and in assay [5] was above 100 µM throughout.
The compound `COc1ccc(C)cc1NC(=S)C#N` returned a TGI in assay [6] above 100 µM.
Take `N#[N+]c1ccc(Nc2ccccc2)cc1`: in assay [6], the GI50 is above 50 µg/mL and the TGI was above 50 µg/mL.
Turning to `O=C(O)CCCCC1CCSS1` (stereo not drawn), in [6], the TGI was above 100 µM.
Same read-out and setting: the same measure for `CC(=O)OCC1OC(n2c3c(cc(C#N)c2=S)CCCC3)C(OC(C)=O)C(OC(C)=O)C1OC(C)=O` (stereo not drawn): above 100 µM.
In the case of `O=C1OC(=O)C([Se]c2ccccc2)=C1[Se]c1ccccc1`, the TGI in assay [1], in assay [2], in assay [3] and in assay [10] was above 100 µM in each case.
Take `COc1cc2c(c(OC)c1OC)C(=O)NCCC2`: the TGI in assay [1], in assay [2], in assay [3], in assay [4], in [7] and in assay [8] was above 100 µM in each case. Also, the TGI in assay [9] and in assay [5] was above 100 µM in each case.

The values are drawn from PubChem BioAssay (NCI).
